Results taken from paper PMC3349126, “Evaluation of the Cytotoxicity of Satureja spicigera and Its Main Compounds” (The Scientific World Journal, 2012).
≈ marks a conversion by molar mass, not a printed value. Counter-ions that a name gives are not always drawn.

Columns and labels:
[1] = tested on: NIH 3T3 (Swiss embryo fibroblast); assay: MTT cytotoxicity assay, NIH 3T3; assay type: cell-based; details: Mus musculus, NIH3T3, 48 hours
Method: (§1) Four cancerous cell lines HT29/219 (human, colon, epithelial-like, carcinoma), Caco2 (human, colon, adenocarcinoma), NIH-3T3 (Swiss NIH mouse, embryo fibroblast), and T47D (human, breast, ductal carcinoma) were purchased from the Pasteur Institute, Tehran, Iran. The cells were maintained in RPMI 1640, supplemented with 10% fetal bovine serum, 0.28 units/mL insulin, 100 μg/mL streptomycin, 100 units/mL penicillin, and 0.3 mg/mL glutamine. The cells were grown at 37°C in a humidified atmosphere of 5% CO2, in air.
(§2) The cytotoxicity of the compounds isolated from S. spicigera was assayed using the MTT cytotoxicity assay. The cells (3 × 10^ 4) were plated in 500 μL of medium/well in 48-well plates (NUNC Cell Culture Flasks, Denmark). After an overnight incubation at 37°C, in 5% CO2, and a humidified atmosphere, the samples were added to the cells to a final concentration of 500 μg/mL. “Methotrexate” (positive control) and pure compounds were examined at concentrations ranging from 5, 10, 20, 40, 80, and 100 μg/mL. The plates were incubated at 37°C, in 5% CO2, humidified atmosphere, for 48 hours. After 48 hours, 50 μL of 5 mg/mL MTT (dissolved in PBS) was added per well. After three hours of incubation, the MTT solution was removed and the cells were washed with 100 μL of PBS, twice. One hundred and fifty microlitres of DMSO was added per well, to solubilize the formazan crystals. The optical densities of the wells were then measured at 570 nm (690 nm reference wavelength). By referring to the control (medium with DMSO), the cell survival was assessed.

[2] = tested on: Caco-2 (colon adenocarcinoma); assay: MTT cytotoxicity assay, Caco-2; assay type: cell-based; details: Homo sapiens, 48 hours
Method: as §1, §2

[3] = tested on: T47D (human, breast, ductal carcinoma); assay: MTT cytotoxicity assay, T47D; assay type: cell-based; details: 48 hours
Method: as §1, §2

[4] = tested on: HT29/219, Caco2, NIH-3T3, and T47D; assay: MTT cytotoxicity assay, all four cell lines (statement in words); assay type: cell-based; details: 48 hours
Method: as §1
The cytotoxicity of the compounds isolated from S. spicigera was assayed using the MTT cytotoxicity assay. The cells (3 × 10^ 4) were plated in 500 μL of medium/well in 48-well plates (NUNC Cell Culture Flasks, Denmark). After an overnight incubation at 37°C, in 5% CO2, and a humidified atmosphere, the samples were added to the cells to a final concentration of 500 μg/mL. “Methotrexate” (positive control) and pure compounds were examined at concentrations ranging from 5, 10, 20, 40, 80, and 100 μg/mL. The plates were incubated at 37°C, in 5% CO2, humidified atmosphere, for 48 hours. After 48 hours, 50 μL of 5 mg/mL MTT (dissolved in PBS) was added per well. […] The optical densities of the wells were then measured at 570 nm (690 nm reference wavelength). By referring to the control (medium with DMSO), the cell survival was assessed.

[5] = tested on: HT-29 (colon adenocarcinoma); assay: MTT cytotoxicity assay, HT-29; assay type: cell-based; details: Homo sapiens, 48 hours
Method: as §1, §2

[6] = Brine shrimp lethality assay (BSA); details: Artemia salina (brine shrimp) nauplii, in vivo, probit analysis, read-out: LC50 against Artemia salina larvae
Method: Gohari et al. reported the method which was adopted to study the cytotoxic activity of the compounds [11]. Water life brand brine shrimp (Artemia salina) eggs were purchased from the Shalat Center (Tehran). The eggs were hatched in a flask containing 300 mL artificial seawater made […]. The flask was well aerated with the aid of an air pump and kept in a water bath at 29-30°C. A bright light was left on. The nauplii hatched within 48 h. The extracts and pure compounds were dissolved in normal saline. Different concentrations were obtained by serial dilution. Solution of each concentration (500 μL) was transferred into clean 24-well plates via a pipette, and aerated seawater having 10–20 nauplii (500 μL) was added. A check count was performed and the number alive noted after 24 h. The mortality end point of the bioassay was determined as the absence of controlled forward motion during 30 seconds of observation. […] Lethality percentage was determined and LC50 calculated based on probit analysis with 95% of confidence interval [11].

| melting point | SMILES | IC50 [1] | IC50 [2] | IC50 [3] | inhibition of the cell growth or proliferation (in words) [4] | IC50 [5] | LC50 at 24 h [6] |
| --- | --- | --- | --- | --- | --- | --- | --- |
| – | O=C1CC(c2cc(O)cc(O)c2)Oc2cc(O)cc(O)c21 (stereo not shown) [compound 8, 5,7,3′,5′-Tetrahydroxy Flavanone] | 101 µg/mL (≈ 349 µM) | > 150 µg/mL | > 150 µg/mL | did not show significant inhibition | > 150 µg/mL | 2 µg/mL (≈ 6.94 µM) |
| – | O=C(c1c(O)cc(O)cc1O)C(O)Cc1ccc(O)cc1 (stereo not shown) [compound 7, nubigenol] | 112 µg/mL (≈ 386 µM) | 143 µg/mL (≈ 493 µM) | 132 µg/mL (≈ 455 µM) | – | > 150 µg/mL | – |
| 256 °C | COc1cc(C2CC(=O)c3c(O)cc(OC4OC(COC5OC(C)C(O)C(O)C5O)C(O)C(O)C4O)cc3O2)ccc1O [compound 9, 5,4′-Dihydroxy-3′-methoxyflavanone-7-(6′′-O-α-L-rhamnopyranosyl)-β-D-glucopyranoside] | 140 µg/mL (≈ 230 µM) | > 150 µg/mL | 98.7 µg/mL (≈ 162 µM) | – | > 150 µg/mL | – |
| – | COc1ccc2cc3[n+](cc2c1OC)CCc1cc2c(cc1-3)OCO2 [berberine hydrochloride, reference compound] | – | – | – | – | – | 26 µg/mL |
